Where “and” joins values, the source holds several entries; their conditions need not be identical. Equal values may be shown once.
Tested on: human PBMCs
Test: LPS-induced cytokine and chemokine levels in human PBMC supernatant (Luminex, ELISA)
Type: cell-based
Conditions: for TNF-α [pg/mL], Mean / TNF-α [pg/mL], individual value / GM-CSF % reduction / GM-CSF [pg/mL], Mean / GM-CSF [pg/mL], individual value / IL-1β % reduction / IL-1β [pg/mL], Mean / IL-1β [pg/mL], individual value / IL-6 % reduction / IL-6 [pg/mL], Mean / IL-6 [pg/mL], individual value / IL-8 % reduction / IL-8 [pg/mL], Mean / IL-8 [pg/mL], individual value / TNF-α % reduction: LPS-stimulated human PBMC supernatant

Structure (SMILES): CC[C@H]1OC(=O)[C@H](C)[C@@H](O[C@H]2C[C@@](C)(OC)[C@@H](O)[C@H](C)O2)[C@H](C)[C@@H](O[C@@H]2O[C@H](C)C[C@H](N(C)C)[C@H]2O)[C@](C)(O)C[C@@H](C)CN(C)[C@H](C)[C@@H](O)[C@]1(C)O [Azithromycin]
- TNF-α [pg/mL], Mean (0.03 µM): 11102 pg/mL
- TNF-α [pg/mL], individual value (0.03 µM): 10517 pg/mL and 11687 pg/mL
- GM-CSF % reduction (0.1 µM): 8%
- GM-CSF [pg/mL], Mean (0.1 µM): 606 pg/mL
- GM-CSF [pg/mL], individual value (0.1 µM): 616 pg/mL and 597 pg/mL
- IL-1β % reduction (0.1 µM): 7%
- IL-1β [pg/mL], Mean (0.1 µM): 11909 pg/mL
- IL-1β [pg/mL], individual value (0.1 µM): 12184 pg/mL and 11633 pg/mL
- IL-6 % reduction (0.1 µM): 10%
- IL-6 [pg/mL], Mean (0.1 µM): 31536 pg/mL
- IL-6 [pg/mL], individual value (0.1 µM): 30929 pg/mL and 32144 pg/mL
- IL-8 % reduction (0.1 µM): -3.72%
- IL-8 [pg/mL], Mean (0.1 µM): 3056 pg/mL
- IL-8 [pg/mL], individual value (0.1 µM): 3040 pg/mL and 3071 pg/mL
- TNF-α % reduction (0.1 µM): 8%
- TNF-α [pg/mL], Mean (0.1 µM): 8220 pg/mL
- TNF-α [pg/mL], individual value (0.1 µM): 7335 pg/mL and 9106 pg/mL
- GM-CSF % reduction (0.3 µM): 3.39%
- GM-CSF [pg/mL], Mean (0.3 µM): 635 pg/mL
- GM-CSF [pg/mL], individual value (0.3 µM): 650 pg/mL and 620 pg/mL
- IL-1β % reduction (0.3 µM): 5%
- IL-1β [pg/mL], Mean (0.3 µM): 12146 pg/mL
- IL-1β [pg/mL], individual value (0.3 µM): 12820 pg/mL and 11473 pg/mL
- IL-6 % reduction (0.3 µM): 8%
- IL-6 [pg/mL], Mean (0.3 µM): 32119 pg/mL
- IL-6 [pg/mL], individual value (0.3 µM): 32538 pg/mL and 31700 pg/mL
- IL-8 % reduction (0.3 µM): -0.427%
- IL-8 [pg/mL], Mean (0.3 µM): 3002 pg/mL
- IL-8 [pg/mL], individual value (0.3 µM): 2940 pg/mL and 3064 pg/mL
- TNF-α % reduction (0.3 µM): 8%
- TNF-α [pg/mL], Mean (0.3 µM): 8210 pg/mL
- TNF-α [pg/mL], individual value (0.3 µM): 7975 pg/mL and 8445 pg/mL
- GM-CSF % reduction (1 µM): 6.38%
- GM-CSF [pg/mL], Mean (1 µM): 616 pg/mL
- GM-CSF [pg/mL], individual value (1 µM): 634 pg/mL and 597 pg/mL
- IL-1β % reduction (1 µM): 4%
- IL-1β [pg/mL], Mean (1 µM): 12252 pg/mL
- IL-1β [pg/mL], individual value (1 µM): 12213 pg/mL and 12291 pg/mL
- IL-6 % reduction (1 µM): -4.52%
- IL-6 [pg/mL], Mean (1 µM): 36486 pg/mL
- IL-6 [pg/mL], individual value (1 µM): 36508 pg/mL and 36463 pg/mL
- IL-8 % reduction (1 µM): 0.166%
- IL-8 [pg/mL], Mean (1 µM): 2992 pg/mL
- IL-8 [pg/mL], individual value (1 µM): 2945 pg/mL and 3040 pg/mL
- TNF-α % reduction (1 µM): -33%
- TNF-α [pg/mL], Mean (1 µM): 11913 pg/mL
- TNF-α [pg/mL], individual value (1 µM): 11577 pg/mL and 12250 pg/mL
- GM-CSF % reduction (3 µM): -8.5%
- GM-CSF [pg/mL], Mean (3 µM): 713 pg/mL
- GM-CSF [pg/mL], individual value (3 µM): 735 pg/mL and 692 pg/mL
- IL-1β % reduction (3 µM): -0.234%
- IL-1β [pg/mL], Mean (3 µM): 12815 pg/mL
- IL-1β [pg/mL], individual value (3 µM): 12810 pg/mL and 12820 pg/mL
- IL-6 % reduction (3 µM): 4%
- IL-6 [pg/mL], Mean (3 µM): 33458 pg/mL
- IL-6 [pg/mL], individual value (3 µM): 33827 pg/mL and 33090 pg/mL
- IL-8 % reduction (3 µM): -3.25%
- IL-8 [pg/mL], Mean (3 µM): 3048 pg/mL
- IL-8 [pg/mL], individual value (3 µM): 3040 pg/mL and 3056 pg/mL
- TNF-α % reduction (3 µM): -13%
- TNF-α [pg/mL], Mean (3 µM): 10076 pg/mL
- TNF-α [pg/mL], individual value (3 µM): 10741 pg/mL and 9410 pg/mL
- GM-CSF % reduction (10 µM): -18%
- GM-CSF [pg/mL], Mean (10 µM): 778 pg/mL
- GM-CSF [pg/mL], individual value (10 µM): 790 pg/mL and 767 pg/mL
- IL-1β % reduction (10 µM): 6%
- IL-1β [pg/mL], Mean (10 µM): 12046 pg/mL
- IL-1β [pg/mL], individual value (10 µM): 12362 pg/mL and 11731 pg/mL
- IL-6 % reduction (10 µM): 4.69%
- IL-6 [pg/mL], Mean (10 µM): 33270 pg/mL
- IL-6 [pg/mL], individual value (10 µM): 35180 pg/mL and 31360 pg/mL
- IL-8 % reduction (10 µM): 7.45%
- IL-8 [pg/mL], Mean (10 µM): 2874 pg/mL
- IL-8 [pg/mL], individual value (10 µM): 2884 pg/mL and 2864 pg/mL
- TNF-α % reduction (10 µM): -22%
- TNF-α [pg/mL], Mean (10 µM): 10907 pg/mL
- TNF-α [pg/mL], individual value (10 µM): 11897 pg/mL and 9917 pg/mL
- GM-CSF % reduction (30 µM): -64%
- GM-CSF [pg/mL], Mean (30 µM): 1076 pg/mL
- GM-CSF [pg/mL], individual value (30 µM): 1120 pg/mL and 1032 pg/mL
- IL-1β % reduction (30 µM): 22%
- IL-1β [pg/mL], Mean (30 µM): 10027 pg/mL
- IL-1β [pg/mL], individual value (30 µM): 10517 pg/mL and 9538 pg/mL
- IL-6 % reduction (30 µM): 2.66%
- IL-6 [pg/mL], Mean (30 µM): 33980 pg/mL
- IL-6 [pg/mL], individual value (30 µM): 33792 pg/mL and 34168 pg/mL
- IL-8 % reduction (30 µM): 5%
- IL-8 [pg/mL], Mean (30 µM): 2917 pg/mL
- IL-8 [pg/mL], individual value (30 µM): 2925 pg/mL and 2908 pg/mL
- TNF-α % reduction (30 µM): -21%
- TNF-α [pg/mL], Mean (30 µM): 10839 pg/mL
- TNF-α [pg/mL], individual value (30 µM): 10668 pg/mL and 11009 pg/mL
- GM-CSF % reduction (100 µM): -161%
- GM-CSF [pg/mL], Mean (100 µM): 1715 pg/mL
- GM-CSF [pg/mL], individual value (100 µM): 1713 pg/mL and 1717 pg/mL
- IL-1β % reduction (100 µM): 51%
- IL-1β [pg/mL], Mean (100 µM): 6242 pg/mL
- IL-1β [pg/mL], individual value (100 µM): 5956 pg/mL and 6528 pg/mL
- IL-6 % reduction (100 µM): 23%
- IL-6 [pg/mL], Mean (100 µM): 27053 pg/mL
- IL-6 [pg/mL], individual value (100 µM): 26301 pg/mL and 27804 pg/mL
- IL-8 [pg/mL], Mean (100 µM): 2975 pg/mL
- IL-8 [pg/mL], individual value (100 µM): 2977 pg/mL and 2972 pg/mL
- TNF-α % reduction (100 µM): 17%
- TNF-α [pg/mL], Mean (100 µM): 7409 pg/mL
- TNF-α [pg/mL], individual value (100 µM): 6229 pg/mL and 8589 pg/mL
- levels of the measured LPS-induced cytokines, chemokines, or MMP-9 in supernatants (human PBMCs, concentrations tested (100 μM not shown)): little to no reduction

— PMC8480901 (PLoS ONE, 2021)
